Assay [1] concerns the target ryanodine receptor, skeletal muscle isoform (RyR1), in porcine skeletal heavy SR membranes (pig (endogenous in porcine longissimus dorsi muscle)) (UniProt P16960). Put plainly: co-sedimentation; fluorescent FKBP12.6 co-sedimented with pig skeletal and cardiac SR membranes, same conditions as the primary screen; with 10 μM temsirolimus or tacrolimus.
In assay [2] the target is ryanodine receptor, cardiac isoform (RyR2), in porcine cardiac SR membranes (pig (endogenous in porcine cardiac left ventricle)). The assay is described as above.
Assay [3] deals with ryanodine receptor, skeletal muscle isoform (RyR1), in porcine skeletal heavy SR membranes (pig (endogenous in porcine longissimus dorsi muscle)) (UniProt P16960). The assay can be described thus: FRET or BRET; same FLT-FRET read-out with temsirolimus (dose response); skeletal and cardiac SR membranes, 30 nM Ca2+, 5 mM GSSG or GSH.
Assay [4] has as its target ryanodine receptor, cardiac isoform (RyR2), in porcine cardiac SR membranes (pig (endogenous in porcine cardiac left ventricle)). The description is as above.
The target of assay [5] is T1, RyR2 (Sus scrofa, UniProt A0A5G2R1W3). The assay can be described thus: FLT-FRET between D-FKBP and A-CaM bound to RyR2 in cardiac SR membranes (dose-response). The format is binding, porcine. Also noted: RyR1 in skeletal SR membranes, and RyR2 in cardiac SR membranes; from tissue; host or cells: porcine cardiac left ventricle (crude SR vesicles). To be noted: RyR2, cardiac SR, 30 nM Ca2+. The procedure:
(§1) Necessary counter-screens to our pathological RyR1 conditions include evaluating compound effects in healthy conditions and on the cardiac isoform, RyR2. Using the same FRET assay as in HTS, we tested the dose response of key Hits from this screen and the previously HTS-identified RyR1 inhibitor, chloroxine, on healthy (5 mM GSH) and pathological (5 mM GSSG) conditions for both RyR1 in skeletal SR membranes, and RyR2 in cardiac SR membranes.
(§2) Skeletal HSR and cardiac CSR (0.4 mg/ml) membranes were independently pre-incubated with 60 nM D-FKBP, for 90 min, at 37 °C, in a solution containing 150 mM KCl, 5 mM GSH, 0.1 mg/mL BSA, 1 µg/mL Aprotinin/Leupeptin, 1 mM DTT and 20 mM PIPES (pH 7.0). To remove unbound D-FKBP, the SR membranes were spun down at 110,000 × g for 20 min, and then resuspended to 1 mg/mL (skeletal HSR) and 2 mg/mL (cardiac CSR) in binding buffer consisting of 150 mM KCl, 5 mM GSSG, 0.1 mg/mL BSA, 1μg/mL Aprotinin/Leupeptin and 20 mM PIPES, pH 7.0. These samples were then incubated with indicated [A-CaM] for 30 min at 22 °C in binding buffer containing 0.065 mM CaCl2 to give 30 nM free Ca^2+ in the presence of 1 mM EGTA (calculated by MaxChelator). This labeled SR sample was applied to the assay plates in 5 μL aliquots using a Multidrop™ Combi reagent dispenser (Thermo Scientific) with a standard-tube. An additional set of the assay plates were loaded with skeletal HSR or cardiac CSR labeled with only D-FKBP (no added A-CaM).
(§3) FLT measurements were conducted in a top-read FLT-PR designed and built by Fluorescence Innovations, Inc[33]. AF488 donor fluorescence was excited with a 473-nm microchip laser from Concepts Research Corporation (Belgium, WI), and emission was acquired with 490-nm long-pass and 517/20-nm band-pass filters (Semrock, Rochester, NY).
FLT waveforms for each well were fit based on a one-exponential decay function using least-squares minimization global-analysis software (Fluorescence Innovations, Inc.), as previously described[19],[33]. FRET efficiency (E) was determined as the fractional decrease of donor FLT (τD), due to the presence of acceptor fluorophore (τDA), using the following equation:1 E=1−τDA/τD,

In assay [6] the target is T2, RyR1 (Sus scrofa, UniProt P16960). The assay can be described thus: FLT-FRET between D-FKBP and A-CaM bound to RyR1 in skeletal SR membranes (HTS and dose-response). In kind it is binding, porcine. Also noted: RyR1 in skeletal SR membranes, and RyR2 in cardiac SR membranes; from tissue; host or cells: porcine longissimus dorsi muscle (heavy SR vesicles). To be noted: for IC50: RyR1, skeletal SR. The procedure:
To confer compatibility with current HTS standards in industrial drug discovery facilities, we miniaturized our screening format from the previously established 384-well plates, requiring 50 μL sample per well[19], to 1536-well plates, requiring 5 μL sample per well. The complete 1280-compound library of pharmacologically active compounds (LOPAC) was applied as 5 nL/well in 40 columns of one 1536-well black-wall/black-bottom plate, with the remaining 8 columns loaded with 5 nL/well of DMSO, as no-drug controls. For each run of the screen, three plates were loaded with either (1) unlabeled HSR, or (2) HSR pre-incubated with donor-FKBP (D-FKBP; donor-only sample), or (3) donor-only sample that was additionally incubated with 0.3 μM acceptor-CaM (A-CaM) for 60 min prior to loading on the plate (donor-acceptor sample). This sub-saturating concentration of A-CaM was used to provide a readout that is sensitive to library compounds that may increase or decrease CaM binding affinity to RyR. To promote a homogenous population of RyR1 resembling that associated with myopathies, final assay conditions also included 30 nM Ca^2+ to represent resting (muscle relaxing) Ca^2+, and 5 mM oxidized glutathione (GSSG), which exaggerates the conditions associated with oxidative stress.
We acquired both FLT waveforms and fluorescence spectra, as previously described[19],[33],[34]. As previously observed, Hit effects were greatest following a 2-hour incubation with the library compounds (Supplementary Fig. 1a). As a result, all FRET results shown in Figs. 1 and 2, and Supplementary Fig. 2 are reported from the 2-hour incubation.
as §1, §2, §3
FLT waveforms for each well were fit based on a one-exponential decay function using least-squares minimization global-analysis software (Fluorescence Innovations, Inc.), as previously described[19],[33]. FRET efficiency (E) was determined as the fractional decrease of donor FLT (τD), due to the presence of acceptor fluorophore (τDA), using the following equation:1 E=1−τDA/τD, […]

Assay [7] deals with T2, RyR1. The assay can be described thus: F-FKBP binding to RyR1 by co-sedimentation with skeletal SR membranes. Also noted: using co-sedimentation with pig skeletal and cardiac SR membranes; from tissue; host or cells: pig skeletal muscle (heavy SR membranes); species or system pig. Conditions: RyR1, 10 μM Hit, 30 nM Ca2+, 5 mM GSSG or GSH. The procedure: (§4) The Hit-induced effect on FRET between D-FKBP and A-CaM most likely results from one or the combination of factors, including a shift in CaM and/or FKBP12.6 binding, and/or structure of the RyR complex that shifts the D-A distance. Under the same assay conditions as in the primary screen, we assessed the effect of 10 μM Hit on fluorescent FKBP12.6 (F-FKBP) binding to RyRs, using co-sedimentation with pig skeletal and cardiac SR membranes.
(§5) Supplementary Fig. 3 Effect of HTS Hits on F-FKBP binding to a) RyR1 in skeletal HSR membranes, and b) RyR2
(§6) in cardiac CSR membranes at 30 nM Ca2+ in the presence of 5 mM GSSG or GSH. Results are represented as individual
(§7) data points and means ± SEM, n = 4-5. *P < 0.05 by 2-sided Student’s unpaired t-test. […]

Assay [8] addresses T1, RyR2. The assay can be described thus: F-FKBP binding to RyR2 by co-sedimentation with cardiac SR membranes. Also noted: using co-sedimentation with pig skeletal and cardiac SR membranes; from tissue; host or cells: pig cardiac muscle (crude SR membranes); species or system pig. Conditions: RyR2, 10 μM Hit, 30 nM Ca2+, 5 mM GSSG or GSH. The procedure:
as §4, §5, §6, §7

T2 sequence (P16960 whole entry): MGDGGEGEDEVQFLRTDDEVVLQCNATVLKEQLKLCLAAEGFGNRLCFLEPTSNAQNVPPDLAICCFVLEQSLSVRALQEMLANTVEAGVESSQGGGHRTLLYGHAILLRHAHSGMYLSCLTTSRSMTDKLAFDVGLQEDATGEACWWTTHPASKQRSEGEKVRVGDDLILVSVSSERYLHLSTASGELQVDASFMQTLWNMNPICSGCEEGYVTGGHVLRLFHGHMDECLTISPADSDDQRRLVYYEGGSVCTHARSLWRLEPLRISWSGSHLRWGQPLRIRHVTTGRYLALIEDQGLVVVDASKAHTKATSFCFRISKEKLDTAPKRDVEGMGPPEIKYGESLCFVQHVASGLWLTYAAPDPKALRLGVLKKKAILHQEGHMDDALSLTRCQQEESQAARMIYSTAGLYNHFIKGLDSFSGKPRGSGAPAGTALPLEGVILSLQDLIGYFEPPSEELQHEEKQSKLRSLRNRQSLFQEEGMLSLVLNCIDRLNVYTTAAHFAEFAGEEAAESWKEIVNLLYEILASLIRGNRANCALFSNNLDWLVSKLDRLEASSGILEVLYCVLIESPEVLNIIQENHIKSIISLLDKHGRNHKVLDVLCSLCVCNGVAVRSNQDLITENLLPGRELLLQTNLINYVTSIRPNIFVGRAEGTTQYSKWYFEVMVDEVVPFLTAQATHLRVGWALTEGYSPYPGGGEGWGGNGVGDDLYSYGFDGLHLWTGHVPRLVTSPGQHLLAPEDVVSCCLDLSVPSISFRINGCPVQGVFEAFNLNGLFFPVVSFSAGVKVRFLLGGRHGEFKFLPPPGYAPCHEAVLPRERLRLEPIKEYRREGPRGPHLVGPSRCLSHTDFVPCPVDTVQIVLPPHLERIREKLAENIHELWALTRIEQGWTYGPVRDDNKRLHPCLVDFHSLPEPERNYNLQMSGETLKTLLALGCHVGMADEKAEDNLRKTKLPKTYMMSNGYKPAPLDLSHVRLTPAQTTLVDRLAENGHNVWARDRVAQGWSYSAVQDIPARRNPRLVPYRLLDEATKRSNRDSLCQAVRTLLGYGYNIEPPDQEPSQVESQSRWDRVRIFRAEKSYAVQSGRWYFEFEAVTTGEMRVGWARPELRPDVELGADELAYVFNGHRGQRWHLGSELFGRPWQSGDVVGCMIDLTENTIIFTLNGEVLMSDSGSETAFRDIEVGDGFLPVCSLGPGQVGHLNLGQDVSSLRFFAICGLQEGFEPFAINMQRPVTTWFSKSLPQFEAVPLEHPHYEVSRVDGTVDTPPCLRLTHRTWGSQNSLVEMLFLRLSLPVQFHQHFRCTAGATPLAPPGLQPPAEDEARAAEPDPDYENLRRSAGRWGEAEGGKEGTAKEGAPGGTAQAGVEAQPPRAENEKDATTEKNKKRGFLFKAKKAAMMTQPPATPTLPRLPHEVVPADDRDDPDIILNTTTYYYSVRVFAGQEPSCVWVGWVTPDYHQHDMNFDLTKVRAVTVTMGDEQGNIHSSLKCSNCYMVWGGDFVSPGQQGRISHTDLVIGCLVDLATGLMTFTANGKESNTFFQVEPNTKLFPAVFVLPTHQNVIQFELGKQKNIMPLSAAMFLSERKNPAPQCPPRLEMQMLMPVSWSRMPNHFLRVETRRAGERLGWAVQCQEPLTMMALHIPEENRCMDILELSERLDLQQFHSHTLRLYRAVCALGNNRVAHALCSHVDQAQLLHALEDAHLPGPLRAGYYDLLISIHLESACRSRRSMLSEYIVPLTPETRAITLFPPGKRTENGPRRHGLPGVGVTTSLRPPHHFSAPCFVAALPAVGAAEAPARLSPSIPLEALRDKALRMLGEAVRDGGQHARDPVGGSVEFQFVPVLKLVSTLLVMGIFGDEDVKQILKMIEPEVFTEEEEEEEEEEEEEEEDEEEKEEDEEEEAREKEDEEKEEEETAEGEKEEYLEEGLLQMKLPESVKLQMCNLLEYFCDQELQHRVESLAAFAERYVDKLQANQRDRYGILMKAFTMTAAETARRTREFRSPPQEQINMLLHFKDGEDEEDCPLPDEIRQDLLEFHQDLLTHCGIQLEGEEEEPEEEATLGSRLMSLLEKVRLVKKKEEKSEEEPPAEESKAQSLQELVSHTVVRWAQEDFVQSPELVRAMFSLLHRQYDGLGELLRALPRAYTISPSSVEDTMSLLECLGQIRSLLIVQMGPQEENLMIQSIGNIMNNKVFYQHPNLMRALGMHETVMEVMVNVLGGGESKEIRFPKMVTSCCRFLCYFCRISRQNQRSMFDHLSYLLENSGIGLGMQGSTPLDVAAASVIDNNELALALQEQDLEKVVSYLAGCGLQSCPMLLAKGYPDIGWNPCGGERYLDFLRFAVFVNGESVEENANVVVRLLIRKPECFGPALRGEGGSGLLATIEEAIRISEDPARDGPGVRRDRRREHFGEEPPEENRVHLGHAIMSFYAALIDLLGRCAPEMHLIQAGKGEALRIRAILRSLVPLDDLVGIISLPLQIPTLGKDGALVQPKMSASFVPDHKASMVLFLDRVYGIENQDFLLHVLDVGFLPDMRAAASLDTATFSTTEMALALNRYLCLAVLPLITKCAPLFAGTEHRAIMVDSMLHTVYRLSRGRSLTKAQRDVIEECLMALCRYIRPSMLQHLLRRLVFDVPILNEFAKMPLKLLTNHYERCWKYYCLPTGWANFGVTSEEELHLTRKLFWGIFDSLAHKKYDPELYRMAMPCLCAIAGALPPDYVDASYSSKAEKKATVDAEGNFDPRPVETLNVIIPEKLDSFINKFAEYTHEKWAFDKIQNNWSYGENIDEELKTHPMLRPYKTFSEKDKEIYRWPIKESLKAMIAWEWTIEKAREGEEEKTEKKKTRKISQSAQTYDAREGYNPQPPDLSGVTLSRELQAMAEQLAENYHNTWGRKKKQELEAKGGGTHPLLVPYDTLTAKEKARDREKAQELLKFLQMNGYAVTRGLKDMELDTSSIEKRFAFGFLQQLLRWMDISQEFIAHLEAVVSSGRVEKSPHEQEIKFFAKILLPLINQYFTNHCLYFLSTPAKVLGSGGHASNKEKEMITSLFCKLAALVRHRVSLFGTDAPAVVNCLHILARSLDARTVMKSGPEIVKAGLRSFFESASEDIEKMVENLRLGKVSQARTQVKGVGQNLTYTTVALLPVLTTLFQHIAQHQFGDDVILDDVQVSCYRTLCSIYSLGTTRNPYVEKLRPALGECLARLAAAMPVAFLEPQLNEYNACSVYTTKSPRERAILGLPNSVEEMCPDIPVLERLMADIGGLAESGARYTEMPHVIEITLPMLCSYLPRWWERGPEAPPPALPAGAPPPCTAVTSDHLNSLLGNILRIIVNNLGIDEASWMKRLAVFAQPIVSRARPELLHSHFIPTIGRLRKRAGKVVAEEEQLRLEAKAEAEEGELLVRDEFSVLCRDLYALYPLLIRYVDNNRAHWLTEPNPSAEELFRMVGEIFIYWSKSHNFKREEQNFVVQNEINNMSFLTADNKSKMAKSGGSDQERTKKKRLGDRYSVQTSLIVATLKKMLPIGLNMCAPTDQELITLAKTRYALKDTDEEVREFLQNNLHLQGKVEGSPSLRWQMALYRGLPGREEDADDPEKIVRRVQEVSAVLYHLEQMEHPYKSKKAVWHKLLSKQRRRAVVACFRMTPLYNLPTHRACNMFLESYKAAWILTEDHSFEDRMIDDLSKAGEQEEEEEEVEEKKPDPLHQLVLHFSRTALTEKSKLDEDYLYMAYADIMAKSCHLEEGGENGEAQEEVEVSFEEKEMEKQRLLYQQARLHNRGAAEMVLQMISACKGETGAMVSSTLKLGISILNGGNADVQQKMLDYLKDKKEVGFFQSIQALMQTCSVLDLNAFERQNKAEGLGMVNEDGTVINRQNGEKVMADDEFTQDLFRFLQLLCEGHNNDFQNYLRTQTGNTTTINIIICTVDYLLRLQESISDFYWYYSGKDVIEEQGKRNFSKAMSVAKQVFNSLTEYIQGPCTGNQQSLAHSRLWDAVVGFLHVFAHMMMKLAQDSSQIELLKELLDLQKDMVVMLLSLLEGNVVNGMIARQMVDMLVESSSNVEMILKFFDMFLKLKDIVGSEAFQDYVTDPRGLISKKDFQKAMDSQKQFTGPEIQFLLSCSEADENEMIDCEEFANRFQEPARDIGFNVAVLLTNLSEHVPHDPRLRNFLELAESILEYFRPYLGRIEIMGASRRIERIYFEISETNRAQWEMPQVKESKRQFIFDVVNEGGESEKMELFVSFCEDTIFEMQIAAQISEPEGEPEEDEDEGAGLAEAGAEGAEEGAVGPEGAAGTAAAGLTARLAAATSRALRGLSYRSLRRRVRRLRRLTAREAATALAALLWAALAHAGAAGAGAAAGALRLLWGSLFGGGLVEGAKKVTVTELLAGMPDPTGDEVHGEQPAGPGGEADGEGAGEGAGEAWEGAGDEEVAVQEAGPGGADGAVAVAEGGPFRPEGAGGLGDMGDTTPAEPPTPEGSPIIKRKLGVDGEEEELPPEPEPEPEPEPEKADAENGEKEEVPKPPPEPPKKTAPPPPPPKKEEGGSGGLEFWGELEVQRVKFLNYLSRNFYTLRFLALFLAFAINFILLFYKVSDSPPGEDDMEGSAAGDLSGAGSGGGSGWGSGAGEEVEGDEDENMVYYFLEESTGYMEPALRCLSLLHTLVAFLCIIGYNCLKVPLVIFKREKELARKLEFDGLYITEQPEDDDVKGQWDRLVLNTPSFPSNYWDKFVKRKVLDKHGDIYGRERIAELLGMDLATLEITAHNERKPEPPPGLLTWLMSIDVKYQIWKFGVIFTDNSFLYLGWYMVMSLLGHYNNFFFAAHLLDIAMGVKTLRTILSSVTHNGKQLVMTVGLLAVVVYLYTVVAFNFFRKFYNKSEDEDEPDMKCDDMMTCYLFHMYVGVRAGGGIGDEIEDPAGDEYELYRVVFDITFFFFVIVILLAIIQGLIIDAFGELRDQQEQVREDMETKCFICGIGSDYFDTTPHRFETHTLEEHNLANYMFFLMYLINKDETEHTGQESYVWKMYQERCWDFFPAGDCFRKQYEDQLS

As for “FKBP12.6 single-cysteine mutant (C22A/T85C/C76I) labeled with AF488 (donor-FKBP) (natural protein)”, the percent decrease of binding with 10 μM temsirolimus or tacrolimus in assay [1] came to 20%; in assay [2], 70%. For the same compound, the FRET reduction by temsirolimus in assay [3] was 10%; in assay [4], 68 to 70%.
The IC50 is the concentration that inhibits the measured activity by half. Consider `Cc1ccc(C(=O)Nc2ccc(S(=O)(=O)O)c3cc(S(=O)(=O)O)cc(S(=O)(=O)O)c23)cc1NC(=O)c1cccc(NC(=O)Nc2cccc(C(=O)Nc3cc(C(=O)Nc4ccc(S(=O)(=O)O)c5cc(S(=O)(=O)O)cc(S(=O)(=O)O)c45)ccc3C)c2)c1` [suramin], for which the 50% inhibitory concentration (IC50) against RyR2 [5] (5 mM GSH) turned out to be 2.5 ± 0.3 µM; at RyR2 [5] (5 mM GSSG), 2.4 ± 0.6 µM; at RyR1 [6] (30 nM Ca2+, 5 mM GSH) it was 5.9 ± 0.7 µM; against RyR1 [6] (30 nM Ca2+, 5 mM GSSG), 7.1 ± 0.5 µM. In addition, the “Hit in primary FLT-FRET HTS of LOPAC (FRET altered by > 4 SD vs DMSO)” value at RyR1 [6] (10 μM compound, 2-hour incubation, 30 nM Ca2+, 5 mM GSSG, 0.3 μM A-CaM, 1536-well) is reported as “identified”. Moreover, the “Influence of GSSG vs GSH on the FRET dose-response effect” value on RyR1 [6] (5 mM GSSG vs 5 mM GSH, isoform not given (figures show skeletal and cardiac SR)) was “not altered by GSH or GSSG”. For the same compound, the “Compound concentration at which FRET is abolished” value at RyR1 [6] (FRET dose-response, isoform not given (figures show skeletal and cardiac SR)) is at most 20 µM. In addition, the “Decrease of F-FKBP binding” value at RyR1 [7] and at RyR2 [8] was “did not alter” each time.

These data come from article PMC7000700, “RyR1-targeted drug discovery pipeline integrating FRET-based high-throughput screening and human myofiber dynamic Ca^2+ assays” (Scientific Reports, 2020).
